According to patent publication US8927700B2, “Catalytic domains from lysyl oxidase and LOXL2” (Gilead Biologics, Inc., priority 2009, dated 2015):

Molecular target: T1, catalytic domain of human LOXL2 (Homo sapiens, UniProt Q9Y4K0)
T1 construct: made in house; host or cells: 293F cells (HEK293 subclone), transient transfection; purified from culture supernatant on Ni-Sepharose
Assay: Amplex Red coupled peroxide assay of lysyl oxidase enzymatic activity (deamination of 1,5-diaminopentane)
Type: biochemical
Details: 1,5-diaminopentane substrate, 37° C., FIG. 5
Description: A polypeptide containing the catalytic domain of human LOXL2 was produced as described in Example 12 above. Enzymatic activity was assessed using a biochemical assay that couples the production of peroxide (liberated by LOXL2 after deamination of 1,5-diaminopentane) to the HRP-catalyzed conversion of Amplex® red to a fluorescent product (resorufin). Palamakumbura et al. (2002) Anal. Biochem. 300:245-251. Reaction plates were obtained from Corning. Amplex® Red reagent was from Invitrogen (Carlsbad, Calif.). Horseradish peroxidase (HRP), 1,5-diaminopentane, and antifoam were from Sigma (St. Louis, Mo.). All other reagents were of the highest quality available.
Enzyme mixture was assembled by adding 10 uL of pooled peak fractions (see Example 12) to 40 uL assay solution (62.5 mM sodium borate pH 8.0, 5 units/mL HRP, 10 ppm antifoam). Substrate solution contained 50 mM sodium borate, 100 uM Amplex® red reagent, 20 mM 1,5-diaminopentane, 10 ppm antifoam. The reaction was started by mixing 50 ul of enzyme mixture with 50 ul of substrate solution. […] Reaction mixtures were incubated, at 37° C., in a Molecular Devices M5 plate reader configured to measure fluorescence (ex=544 nm, em=590 nm) in kinetics mode for 1 hour. Data were recorded as the slope of the fluorescence response to time.

T1 sequence (Q9Y4K0 with tags, fused parts or gaps): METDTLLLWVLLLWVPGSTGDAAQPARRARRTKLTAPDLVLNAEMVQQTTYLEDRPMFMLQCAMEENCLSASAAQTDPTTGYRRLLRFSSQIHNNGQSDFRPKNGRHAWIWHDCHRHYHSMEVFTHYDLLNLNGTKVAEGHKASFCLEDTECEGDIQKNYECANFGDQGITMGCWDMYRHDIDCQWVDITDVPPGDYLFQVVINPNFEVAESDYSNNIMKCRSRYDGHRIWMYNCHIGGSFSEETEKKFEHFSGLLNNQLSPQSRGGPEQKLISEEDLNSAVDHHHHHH

Molecule	inhibition of the enzymatic activity of the human LOXL2-derived polypeptide (time course of resorufin production, RFU) (2 mM βAPN in reaction, kinetics mode for 1 hour)	enzymatic activity (time course of resorufin production, relative fluorescent units) (pooled peak fractions of purified polypeptide, 1 hour)
N#CCCN [βAPN, beta-aminoproprionitrile]	inhibited	–
human LOXL2-derived polypeptide: polypeptide containing the catalytic domain of human LOXL2 with myc epitope tag and His6 purification tag, produced in 293F cells	–	measurable enzymatic activity
